This is an account of results in US20240299385A1 (ReWind Therapeutics NV, priority 2021, published 2024).

The test has as its target T1, human GPR17 receptor (Homo sapiens, UniProt Q13304).
T1 construct: host or cells: HEK-293
As to the kind of experiment: Calcium mobilization functional assay (Fluo-8, FLIPR TETRA) in HEK-293 hGPR17 (Gα-q assay). The class given is cell-based. To be noted: antagonism of MDL29,951 (~EC80) induced Ca2+ signal; cell line (HEK-293 hGPR17 or HEK-293 Suchi5 hGPR17) not given. In outline: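 Fluo-8-loaded HEK-293 hGPR17 cells (60 min dye loading, room temperature) were preincubated with compound for twenty minutes, then challenged with agonist MDL29,951 at ~EC80, 500 nM. Intracellular calcium release via Gα-q was recorded as FLIPR fluorescence for a further 2 minutes; compounds tested in duplicate.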

pIC50: −log10 of the molar value.

T1 sequence (Q13304 whole entry): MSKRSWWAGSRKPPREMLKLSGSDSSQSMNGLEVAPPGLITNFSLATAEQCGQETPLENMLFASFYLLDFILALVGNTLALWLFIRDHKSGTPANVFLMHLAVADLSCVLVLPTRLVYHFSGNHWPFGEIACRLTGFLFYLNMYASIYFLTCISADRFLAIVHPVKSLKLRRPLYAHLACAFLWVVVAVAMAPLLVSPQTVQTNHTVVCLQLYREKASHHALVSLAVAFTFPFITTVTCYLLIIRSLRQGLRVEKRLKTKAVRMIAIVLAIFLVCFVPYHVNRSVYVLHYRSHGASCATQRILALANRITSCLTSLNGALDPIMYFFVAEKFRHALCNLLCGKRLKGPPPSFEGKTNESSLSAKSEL

A word on the pIC50: it is the IC50 on a negative log10 scale, so that one unit is a factor of ten. In the case of `O=S(=O)(Nc1cc(F)c(C(F)(F)F)cc1F)c1c[nH]c(-c2ncccc2Br)c1` [Cpd 346, 5-(3-bromo-2-pyridyl)-N-[2,5-difluoro-4-(trifluoromethyl)phenyl]-1H-pyrrole-3-sulfonamide], the pIC50 is over 6.30. With `N#Cc1ccc(NS(=O)(=O)c2c[nH]c(-c3ccc(F)cn3)c2)c(F)c1` [Cpd 347, N-(4-cyano-2-fluoro-phenyl)-5-(5-fluoro-2-pyridyl)-1H-pyrrole-3-sulfonamide], the pIC50 was 5.30 to 6.30. As for `Cc1cccnc1-c1cc(S(=O)(=O)Nc2ccc(C#N)cc2F)c[nH]1` [Cpd 348, N-(4-cyano-2-fluoro-phenyl)-5-(3-methyl-2-pyridyl)-1H-pyrrole-3-sulfonamide], the pIC50 was over 6.30. Regarding `N#Cc1ccc(NS(=O)(=O)c2c[nH]c(-c3ncccc3Cl)c2)c(F)c1` [Cpd 349, 5-(3-chloro-2-pyridyl)-N-(4-cyano-2-fluoro-phenyl)-1H-pyrrole-3-sulfonamide], the pIC50 is over 6.30. Take `N#Cc1ccc(NS(=O)(=O)c2c[nH]c(-c3ncccc3Br)c2)c(F)c1` [Cpd 350, 5-(3-bromo-2-pyridyl)-N-(4-cyano-2-fluoro-phenyl)-1H-pyrrole-3-sulfonamide]: the pIC50 was over 6.30. As for `O=S(=O)(Nc1cc(F)c(C(F)(F)F)cc1F)c1c[nH]c(-c2ccccc2Cl)c1` [Cpd 351, 5-(2-chlorophenyl)-N-[2,5-difluoro-4-(trifluoromethyl)phenyl]-1H-pyrrole-3-sulfonamide], the pIC50 is 5.30 to 6.30. For `COc1cc(F)ccc1-c1cc(S(=O)(=O)Nc2ccc(C#N)cc2F)c[nH]1` [Cpd 352, N-(4-cyano-2-fluoro-phenyl)-5-(4-fluoro-2-methoxy-phenyl)-1H-pyrrole-3-sulfonamide], the pIC50 is 5.30 to 6.30. Take `N#Cc1cc(F)c(NS(=O)(=O)c2c[nH]c(-c3ccccn3)c2)cc1F` [Cpd 353, N-(4-cyano-2,5-difluoro-phenyl)-5-(2-pyridyl)-1H-pyrrole-3-sulfonamide]: the pIC50 is over 6.30. The same measure for `N#Cc1cc(F)c(NS(=O)(=O)c2c[nH]c(-c3ccccn3)c2)c(F)c1` [Cpd 354, N-(4-cyano-2,6-difluoro-phenyl)-5-(2-pyridyl)-1H-pyrrole-3-sulfonamide]: 5.30 to 6.30. For `N#Cc1ccccc1-c1cc(S(=O)(=O)Nc2cc(F)c(C(F)(F)F)cc2F)c[nH]1` [Cpd 355, 5-(2-cyanophenyl)-N-[2,5-difluoro-4-(trifluoromethyl)phenyl]-1H-pyrrole-3-sulfonamide], the pIC50 is 5.30 to 6.30. As for `O=S(=O)(Nc1cc(F)c(C(F)(F)F)cc1F)c1c[nH]c(-c2cccc(Cl)c2)c1` [Cpd 356, 5-(3-chlorophenyl)-N-[2,5-difluoro-4-(trifluoromethyl)phenyl]-1H-pyrrole-3-sulfonamide], the negative logarithm of the IC50 (pIC50) is 5.30 to 6.30. Take `N#Cc1cc(F)c(NS(=O)(=O)c2c[nH]c(-c3ccccn3)c2)cc1Cl` [Cpd 357, N-(5-chloro-4-cyano-2-fluoro-phenyl)-5-(2-pyridyl)-1H-pyrrole-3-sulfonamide]: the negative-log IC50 (pIC50) was over 6.30. The result for `N#Cc1ccc(NS(=O)(=O)c2c[nH]c(C3=CCCCC3)c2)c(F)c1` [Cpd 358, N-(4-cyano-2-fluoro-phenyl)-5-(cyclohexen-1-yl)-1H-pyrrole-3-sulfonamide] reads over 6.30; that for `O=S(=O)(Nc1cc(F)c(Br)cc1F)c1c[nH]cc1-c1cccc(F)c1` [Cpd 359, N-(4-bromo-2,5-difluoro-phenyl)-4-(3-fluorophenyl)-1H-pyrrole-3-sulfonamide], 5.30 to 6.30. Take `O=S(=O)(Nc1cc(F)c(OC(F)F)cc1F)c1c[nH]cc1-c1cccc(F)c1` [Cpd 360, N-[4-(difluoromethoxy)-2,5-difluoro-phenyl]-4-(3-fluorophenyl)-1H-pyrrole-3-sulfonamide]: the negative-log IC50 (pIC50) is over 6.30. Turning to `O=S(=O)(Nc1cc(F)c(C(F)(F)F)cc1F)c1c[nH]c(-c2ccccc2C(F)(F)F)c1` [Cpd 361, N-[2,5-difluoro-4-(trifluoromethyl)phenyl]-5-[2-(trifluoromethyl)phenyl]-1H-pyrrole-3-sulfonamide], the negative-log IC50 (pIC50) was 5.30 to 6.30.

`O=S(=O)(Nc1cc(F)c(C(F)(F)F)cc1F)c1c[nH]c(-c2ccc(Cl)cc2F)c1` [Cpd 362, 5-(4-chloro-2-fluoro-phenyl)-N-[2,5-difluoro-4-(trifluoromethyl)phenyl]-1H-pyrrole-3-sulfonamide]: the pIC50 was 4.30 to 5.30. `O=S(=O)(Nc1cc(F)c(C(F)(F)F)cc1F)c1c[nH]c(-c2c(F)cccc2Cl)c1` [Cpd 363, 5-(2-chloro-6-fluoro-phenyl)-N-[2,5-difluoro-4-(trifluoromethyl)phenyl]-1H-pyrrole-3-sulfonamide]: the pIC50 was 5.30 to 6.30. For `O=S(=O)(Nc1cc(F)c(C(F)(F)F)cc1F)c1c[nH]cc1-c1cccc(F)c1` [Cpd 364, N-[2,5-difluoro-4-(trifluoromethyl)phenyl]-4-(3-fluorophenyl)-1H-pyrrole-3-sulfonamide], the pIC50 was 5.30 to 6.30. The result for `O=S(=O)(Nc1cc(F)c(C(F)(F)F)cc1F)c1c[nH]c(-c2cccc(C(F)(F)F)c2)c1` [Cpd 365, N-[2,5-difluoro-4-(trifluoromethyl)phenyl]-5-[3-(trifluoromethyl)phenyl]-1H-pyrrole-3-sulfonamide] reads 5.30 to 6.30. For the molecule `O=S(=O)(Nc1cc(F)c(C(F)(F)F)cc1F)c1c[nH]c(-c2ccc(F)cc2F)c1` [Cpd 366, 5-(2,4-difluorophenyl)-N-[2,5-difluoro-4-(trifluoromethyl)phenyl]-1H-pyrrole-3-sulfonamide], the pIC50 is 5.30 to 6.30.

For `CSc1cccc(Cc2c[nH]cc2S(=O)(=O)Nc2ccc(C#N)cc2F)c1` [Cpd 367, N-(4-cyano-2-fluoro-phenyl)-4-[(3-methylsulfanylphenyl)methyl]-1H-pyrrole-3-sulfonamide], the pIC50 is over 6.30. The result for `COCc1cccc(Cc2c[nH]cc2S(=O)(=O)Nc2ccc(C#N)cc2F)c1` [Cpd 368, N-(4-cyano-2-fluoro-phenyl)-4-[[3-(methoxymethyl)phenyl]methyl]-1H-pyrrole-3-sulfonamide] reads 5.30 to 6.30; that for `O=S(=O)(Nc1cc(F)c(C(F)(F)F)cc1F)c1c[nH]c(-c2ccc(C(F)(F)F)cn2)c1` [Cpd 369, N-[2,5-difluoro-4-(trifluoromethyl)phenyl]-5-[5-(trifluoromethyl)-2-pyridyl]-1H-pyrrole-3-sulfonamide], 4.30 to 5.30; that for `O=S(=O)(Nc1cc(F)c(C(F)(F)F)cc1F)c1c[nH]c(-c2cc(C(F)(F)F)ccn2)c1` [Cpd 370, N-[2,5-difluoro-4-(trifluoromethyl)phenyl]-5-[4-(trifluoromethyl)-2-pyridyl]-1H-pyrrole-3-sulfonamide], 4.30 to 5.30.

Consider `O=S(=O)(Nc1cc(F)c(C(F)(F)F)cc1F)c1c[nH]c(-c2cccc(Br)n2)c1` [Cpd 371, 5-(6-bromo-2-pyridyl)-N-[2,5-difluoro-4-(trifluoromethyl)phenyl]-1H-pyrrole-3-sulfonamide], for which the pIC50 is 5.30 to 6.30.

Turning to `N#Cc1ccc(NS(=O)(=O)c2c[nH]c(-c3cccc(Cl)n3)c2)c(F)c1` [Cpd 372, 5-(6-chloro-2-pyridyl)-N-(4-cyano-2-fluoro-phenyl)-1H-pyrrole-3-sulfonamide], the pIC50 is over 6.30.

With `N#Cc1ccc(NS(=O)(=O)c2c[nH]c(-c3cccc(C(F)(F)F)n3)c2)c(F)c1` [Cpd 373, N-(4-cyano-2-fluoro-phenyl)-5-[6-(trifluoromethyl)-2-pyridyl]-1H-pyrrole-3-sulfonamide], the pIC50 is 5.30 to 6.30.
